Like-named read-outs stand apart in the source and are kept apart here.
Columns and labels:
NNRTI-resistant HIV-1 = test: Inhibition of multiple anti-retroviral drug resistant HIV-1 strains: NNRTI-resistant; assay type: cell-based
Experimental: In addition, various different “types” of multiple anti-retroviral drug resistant HIV-1 strains were also tested: […]

HBV = HBV replication in chronically infected HepG2 2.2.15 cells (TaqMan PCR of HBV DNA); assay type: cell-based, Hepatitis B virus; conditions: for IC50: chronically HBV-infected HepG2 2.2.15 cells
Experimental: (§1) Human HepG2-2.2.15 cells (ATCC Cat. No. CRL-11997), chronically infected with HBV, are plated in 96-well microtiter plates in DMEM medium supplemented with fetal bovine serum. After incubation at 37° C. in a humidified, 5% CO2 environment for 16-24 hours, the monolayer of HepG2-2.2.15 cells is washed and the medium is replaced with complete medium containing various concentrations of test compound. Every three days during the experiments, the culture medium is replaced with fresh medium containing the appropriately diluted test compound. Six days following the initial administration of the test compound, the cell culture supernatant is collected and clarified by centrifugation. The cell viability is evaluated by a dye uptake procedure (Promega's Cell Titer Aqueous One Solution). Virion-associated HBV DNA present in the tissue culture supernatant is amplified employing PCR technology using primer pairs derived from the HBV strain ayw. Subsequently, the PCR-amplified HBV DNA is detected in real-time by monitoring increases in fluorescence signals that result from exonucleolytic degradation of a quenched fluorescent probe molecule following hybridization of the probe to the amplified HBV DNA (TaqMan; Perkin-Elmer).

HepG2 cells = assay type: cell-based, human; conditions: Lamivudine-resistant HBV experiment, read-out: TC50 (the source's name)
Experimental: as §1
The same type of experiments was additionally performed with a mutant, Lamivudine-resistant HBV strain, which was transfected into HepG2 cells.

EBV = EBV replication in TPA-induced P3HR-1 cells (TaqMan PCR); assay type: cell-based, Epstein-Barr virus
Experimental: (§2) Human P3HR-1 cells are latently infected with EBV. Culturing these cells in the presence of phorbol ester induces a lytic infection cycle, resulting in stimulation of viral replication within the cells. Compound efficacy in this assay is determined using TaqMan PCR technology, and compound toxicity is measured by addition of Promega's Cell Titer Aqueous One Solution (metabolic dye).
1. P3HR-1 cells are counted by the trypan blue dye exclusion method, and the cell count/ml is determined. Cells are pelleted by centrifugation and washed once with PBS to minimize the basal level of virus released from untreated cells which spontaneously enter the lytic cycle and release virus.
2. Cells are resuspended in fresh media and adjusted to the appropriate cell density. Cells are then plated in the interior wells of 96-well round-bottom microtiter plates in a volume of 50 μl per well.
3. The phorbol ester TPA is added to appropriate wells in a volume of 50 μl per well to yield a final concentration of 15 ng/ml. Medium is added in place of TPA in three wells to serve as a negative control.
4. […]
5. A standard curve prepared from known copy numbers of DNA isolated from P3HR-1 cells and amplified is run with each plate in order to quantitate the DNA copy number in each original sample. The efficacy of the compound is determined by comparing DNA copy numbers from test wells with those of control wells.

P3HR-1 cells = test: Compound toxicity in P3HR-1 cells (Cell Titer Aqueous One); assay type: cell-based, human; conditions: P3HR1 cells; read-out: TC50 (the source's name)
Experimental: as §2
6. Duplicate plates are set up plating media in place of TPA for evaluation of compound toxicity.
6. Twenty micorliters of Cell Titer Aqueous One Solution (Promega) is added to each well of the toxicity plates. Plates are incubated at 37° C. in a humidified CO2 incubator for 4 hours or until sufficient color development has occurred. Plates are read on a VMax microtiter plate reader at a wavelength of 490/650 nm. Toxicity of the test compound is determined by comparing the optical density of test wells with that of control wells.

VZV strain ELLEN = test: VZV plaque reduction assay in MRC-5 cells; assay type: cell-based, Varicella-zoster virus
Experimental: MRC-5 (human embryonic lung fibroblast) cells (ATCC Cat. No. CCL-171) are seeded in 24 well plates using Eagle's Minimum Essential Medium (EMEM) supplemented with 10% heat-inactivated fetal bovine serum (FBS), L-glutamine, sodium pyruvate, non-essential amino acids, penicillin, and streptomycin. The plates are then incubated overnight at 37° C. and 5% CO2. The following day, media is aspirated and approximately 50-100 pfu (plaque forming units) of VZV strain ELLEN is added to the wells of each plate in a volume of 200 μl of assay media (EMEM supplemented with 5% heat-inactivated FBS, L-glutamine, sodium pyruvate, non-essential amino acids, penicillin, and streptomycin). The remaining wells of each plate serve as cellular control wells and receive 200 μl of assay media without virus. The virus is allowed to adsorb onto the cells for 1 hr at 37° C. and 5% CO2. Two dilutions of each test drug are prepared by diluting them in assay media containing 0.5% Methylcellulose. After the incubation period, 1 ml of each drug dilution is added to triplicate wells of a plate. Assay media (without drug) containing 0.5% Methylcellulose is added to the three cell control wells and to three virus control wells on each plate. The plates are incubated for 9-12 days to allow for plaque formation. […]

CC(=NNC(=N)N)c1cc(NC(=O)CCCCCCCCC(=O)Nc2cc(C(C)=NNC(=N)N)cc(C(C)=NNC(=N)N)c2)cc(C(C)=NNC(=N)N)c1 [Compound 4, N,N′-bis (3,5-diacetylphenyl) decane diamide tetrakis (amidinohydrazone)]
[%] inhibition of virus replication (NNRTI-resistant HIV-1; NNRTI-resistant HIV-1, 0.5 μM): 71% | [%] inhibition of virus replication (NNRTI-resistant HIV-1; NNRTI-resistant HIV-1, 1.0 μM): 82% | Comments (HBV; HBV, HepG2 2.2.15 cells): Active | IC50 (HBV; six days, read-out: IC50 (μM) Virion-DNA): 3.19 µM | IC50 (HBV; read-out: IC50 (μM) Intracellular Viral DNA): 4.96 µM | CC50 (HepG2 cells): 24.7 µM | Comments (EBV; EBV, P3HR1 cells): Significant Activity | IC50 (EBV; EBV-infected P3HR1 cells, day 4): 2.3 µM | CC50 (P3HR-1 cells): 21.8 µM | IC50 (VZV strain ELLEN; MRC-5 cells newly infected with VZV): 4.69 µM | Comments (VZV strain ELLEN; VZV, MRC-5 cells): Significant activity
